From US20060105969A1, “Anthelmintic compositions” (priority 1999, published 2006)
Like-named read-outs stand apart in the source and are kept apart here.

System: L4 Heartworm (D. immitis)
Assay: In vitro L4 heartworm (D. immitis) larval motility assay
Type: cell-based, Dirofilaria immitis

| SMILES | effect in causing mortality or paralysis | Observation score (larval motility), duplicate observations (1 mcg/ml, 2 h post treatment) | Observation score (larval motility), duplicate observations (1 mcg/ml, 4 h post treatment) | Observation score (larval motility), duplicate observations (1 mcg/ml, 24 h post treatment) | Observation score (larval motility), duplicate observations (1 mcg/ml, 48 h post treatment) | Observation score (larval motility), duplicate observations (1 mcg/ml, 72 h post treatment) | Observation score (larval motility), duplicate observations (10 mcg/ml, 2 h post treatment) | Observation score (larval motility), duplicate observations (10 mcg/ml, 4 h post treatment) | Observation score (larval motility), duplicate observations (10 mcg/ml, 24 h post treatment) | Observation score (larval motility), duplicate observations (10 mcg/ml, 48 h post treatment) | Observation score (larval motility), duplicate observations (10 mcg/ml, 72 h post treatment) | Observation score (larval motility), duplicate observations |
| --- | --- | --- | --- | --- | --- | --- | --- | --- | --- | --- | --- | --- |
| CO[C@H]1C[C@H](O[C@@H]2/C(C)=C/C[C@@H]3C[C@@H](C[C@]4(CC[C@H](C)[C@@H](C5CCCCC5)O4)O3)OC(=O)[C@@H]3C=C(C)/C(=N/O)[C@H]4OC/C(=C\C=C\[C@@H]2C)[C@]43O)O[C@@H](C)[C@@H]1O [(1), 5-oximino 22,23-dihydro-25-cyclohexylayermectin B1 monosaccharide] | only a modest effect | 5/5 | 5/5 | 5/5 | 5/5 | 5/5 | 2/2 | 2/0 | 3/3 | 4/4 | 3/4 | – |
| N#Cc1nn(-c2c(Cl)cc(C(F)(F)F)cc2Cl)c(N)c1[S+]([O-])C(F)(F)F (stereo not shown) [Fipronil, 5-amino-3-cyano-1-(2,6-dichloro-4-trifluorome-thylphenyl)-4-trifluoromethylsulphinylpyrazole] | no observable effect at all | – | – | – | – | – | – | – | – | – | – | 5/5 |
